Measured values reported in US20190183894A1, “METHOD OF TREATMENT OF DIABETIC FOOT ULCERS” (Malesil Research & Technology LLC, priority 2017, published 2019).
Read-outs that look alike come from different tables or passages of the source.

Columns and labels:
[1] = system: diabetic patients with grade 2 and grade 3 ulcers (Wagner classification); assay type: in vivo, human
Method: In order to assess the effect of sildenafil maleate in treatment of diabetic foot ulcers, a 12-week open-label longitudinal study was conducted to compare the conventional treatment and the conventional treatment with simultaneous administration of sildenafil maleate.
Diabetic patients with grade 2 and grade 3 ulcers were selected, according to Wagner classification and complying with the following inclusion and exclusion criteria:
Inclusion Criteria: • Male or female patients with type-2 Diabetes Mellitus • Age younger than 80 years • Grade-2 or -3 foot or leg ulcer, of any origin according to Wagner classification, without compromising tendons nor bone, with a progression time not higher than 3 months. • Presence or absence of localized infection • Without peripheral vascular obstruction
Exclusion Criteria • Type-1 Diabetes Mellitus patients • Grade-4 foot or leg ulcer according to Wagner classification or foot or knuckle necrosis • Peripheral vascular obstruction (ankle/arm index lower than 0.3) • Patients with creatinine higher than 1.2 mg/dL or blood urea nitrogen (BUN) higher than 50 • Transaminases 2 times above baseline • Microalbuminuria higher than 100
Patients who meet inclusion and exclusion criteria, who voluntarily accept to participate in the study and further signing a written consent, are randomly assigned to two study groups:
Group I: Conventional treatment
Group II: Conventional treatment with simultaneous administration of sildenafil maleate.
Patients are required to perform wound treatment and to register lesion progression.
Visit 1 • Signature of written consent • Physical examination • Petition of clinical lab examinations: complete blood count, glycosilated hemoglobin (HbA1c), total colesterol, total lipids, triglycerides, HDL-colesterol, urea, creatinine, microalbumina, aspartate aminotransferase (TGO), alanine aminotransferase (TGP), reactive, ultra-sensitive C-protein (PCR-u), urine test, pre and postprandial glycemia, lesion culture when required. • Conventional healing of lesion • Arterial Doppler request of affected limb • Provide treatment with antibiotics when necessary
Visit 2 (1 to 3 Days after Visit 1) • Interpretation of lab examination and Doppler study • Clinical/physical lesion examination • Patient inclusion/exclusion decision into the study • Random assignment of study groups • Registration of lesion characteristics (lesion photographs) • Assessment of metabolic control
Visit 3 (1 to 3 Days after Visit 2) • Registration of lesion progression (lesion photographs) • Assessment of patient's metabolic control • Delivery of corresponding medicaments (antibiotics and sildenafil maleate as applicable) • Registration de adverse events
Visit 4 Until Week 12 of Study (2 to 3 Times Per Week) • Registration of lesion progression (lesion photographs) • Registration de adverse events • Assessment of metabolic control
Visit 5 (1 to 5 Days after Final Visit) • Registration of lesion progression (lesion photographs) • Registration of adverse events • Compliance with study medication intake • Education for future lesion prevention
Wound treatment applied to all patients during each visit consists of cleaning with […] and distilled water, using sterile material; ointment MEBO® (Moist exposed Burn Treatment) was locally applied and dressing with sterile gauze when needed.
Study medication was delivered in accordance with the previously established protocol; compliance with medication intake and presence of adverse events was verified. Medication was suspended in case of showing any adverse effect, even a mild event associated with study medicament (sildenafil maleate).

[2] = cited from earlier work

In the case of sildenafil maleate, the “effect on macro and microcirculation, granulation and healing of ulcers” value ([1]; 10-mg daily dose, oral, diabetic foot patients) is reported as “improvement in macro and microcirculation”, the “recovery of patients with previous amputations” value ([1]; Group II patients who had previous amputations) is reported as “total recovery” and the “blood flow and health status of lower limbs after end of treatment” value ([1]; Group II patients whose treatment concluded before the 12 weeks) is reported as “kept an improvement in blood flow”. The “patients who obtained a satisfactory result (lesion healing)” value ([1]; Group II: conventional treatment with simultaneous sildenafil maleate) was 100%, the adverse events ([1]; in vivo) was “did not experience adverse events” and the side effects ([1]; in vivo, po) was “does not show side effects”. The “lower healing time than group with conventional treatment” value ([1]; patients with grade 2 ulcers) was 20 days, the “Average healing time (Group II)” value ([1]; ulcer grade 2 according to Wagner scale) was 47 days and the “Average healing time (Group II)” value ([1]; ulcer grade 3 according to Wagner scale) was 81 days. The “Average healing time (Group II)” value ([1]; ulcer grades 2 and 3 according to Wagner scale) was 55 days, the “decrease of recovery time” value ([1]; vs conventional treatment, regardless of ulcer grade and lesion area) was “about 20 days” and the “absorption compared with sildenafil citrate” value ([2]; in vivo) was “faster absorption”. For the same substance, the “bioequivalence with sildenafil citrate” value ([2]; in vivo) was “bioequivalent”, the plasma protein binding ([2]; in vivo) was “mostly bound to plasma proteins” and the “delay of maximum peak” value ([2]; ingested during a high fat content meal) was 60 min. For the same substance, the “time to maximum concentration” value ([2]; oral administration, fasting subjects) was 60 min and the distribution volume ([2]; stationary media (steady state)) was 105 L.
